Test results reported in patent US4520134A, “N-alkyl-4'-hydroxyacetanilides, pharmaceutical compositions comprising them and their use” (priority 1984, dated 1985).
Read-outs that look alike come from different tables or passages of the source.

Experiments:
[1] = cited from earlier work; for protective effect against paracetamol: 300 mg/kg, 450 mg/kg paracetamol orally; for protection against acetaminophen toxicity: free radical scavengers; for effect on acetaminophen hepatotoxicity: Kelleher et al.
[2] = enhancement of acetaminophen hepatotoxicity (applicant's finding); settings: in vivo
[3] = mouse, in vivo; cited from earlier work
[4] = administered up to one hour after acute toxic amounts of acetaminophen; cited from earlier work
[5] = administered within 16 hours after an overdose; cited from earlier work
[6] = hot plate test (Ankier), time to lick a back paw; type: in vivo, mice; settings: 30 mg/kg i.p.; for average time before licking a back paw: 10 minutes after dose, plate 54° C., untreated control 44 seconds
Description: Two groups of mice, six mice per group, were used in the hot plate test described by S. I. Ankier European Journal of Pharmacology 27:1-4 (1974). The control group, which was untreated, at a plate temperature of 54° C. took an average of 44 seconds to lick a back paw. The test group received a dose of N-ethyl-4'-hydroxyacetanilide (30 mg/kg) administered intraperitoneally, and when placed on the hot plate at 54° C. 10 minutes later, shown an average time of 64 seconds before licking a back paw. The analgesic activity of this compound thus increased the pain-response time by almost 50 percent.
The analgesic properties of N-isopropylacetaminophen were tested using the hot plate test described by Ankier (Eur. J. Pharmacol. 27: 1-(1974)). Two groups of mice, 6 animals/group were used. The first group was placed on the hot plate, individually, and time need to lick the back paw was recorded and found to be 44 seconds (average) at 54° C. The second group of mice each received 30 mg/kg (i.p.) N-isopropylacetaminophen and after 10 minutes placed on the hot plate at 54° C. The time required to lick the rear paw was measured and found to be 64 seconds (average), thus increased response time by 50%.

[7] = 1894 paper, without supporting data; cited from earlier work
[8] = 1894 paper; cited from earlier work
[9] = CNS sedation by N-isopropylacetaminophen; type: in vivo, mice
Description: (§1) The toxicity of N-isopropylacetaminophen was evaluated by injecting mice with this compound at various doss from 100-400 mg/kg, i.p.) and 24 hours later, the animals were sacrificed and histopathology was determined for the liver, kidney and lung.
The higher the dose, the longer the sedation. This was also found to be the case when mice were given the drug orally, except the dose needed to give the same sedative activity was higher (400-600 mg/kg, oral). This sedative effect of the drug lasted from 30 min. at 250 mg/kg to approximately 1.5 hr at 400 mg/kg. At the higher dose, the mice went to sleep.

[10] = toxicity of N-isopropylacetaminophen, histopathology of liver, kidney and lung; type: in vivo, mice; settings: 100-400 mg/kg i.p.; 24 hours
Description: as §1

[11] = therapeutically recommended doses for extended periods of time; cited from earlier work
[12] = mouse, in vivo, cited from earlier work
[13] = mouse, in vivo
[14] = man; cited from earlier work
cytochrome P-450 = settings: cited from earlier work
[15] = chronic use; cited from earlier work
[16] = vitamin E deficient rats; cited from earlier work
[17] = 500 mg/kg i.p. in propylene glycol

CC1NC(C(=O)O)CS1 (centres unmarked) [2-methylthiazolidine-4-carboxylic acid]
protection against hepatotoxins ([1]; forms cysteine in the liver): can also protect against heptotoxins

COc1ccc(O)c(C(C)(C)C)c1 [BHA, butylated hydroxyanisole]
effect on acetaminophen hepatotoxicity [2]: profoundly enhance its hepatotoxicity

Cc1cc(C(C)(C)C)c(O)c(C(C)(C)C)c1 [BHT, butylated hydroxytoluene]
effect on acetaminophen hepatotoxicity [2]: profoundly enhance its hepatotoxicity

C[S+](C)[O-] [DMSO, Dimethyl sulfoxide]
protection against CCl4 hepatotoxicity [3]: inability of DMSO to protect mice against CCl4 hepatotoxicity
protection against hepatotoxic effects of acetaminophen [4]: protect mice against the hepatotoxic effects of acetaminophen

CC(=O)N[C@@H](CS)C(=O)O [N-acetylcysteine]
prevention of hepatotoxicity [5]: effective in preventing hepatotoxicity

CCN(C(C)=O)c1ccc(O)cc1 [N-ethyl-4'-hydroxyacetanilide]
average time before licking a back paw [6]: 64 s
increase in pain-response time ([6]; vs untreated control, 54° C.): ~50%
duration of sedative effects [17]: about one-half
sedative effects [17]: sedative effects
time to ataxia of the hind legs [17]: about 15 minutes
time to drowsiness [17]: about 25 minutes
duration of sleep (600 mg/kg oral, aqueous vehicle, pH 12): 25 to 40 min
analgesic properties [7]: no analgesic properties
antipyretic activity [8]: no antipyretic activity

CC(=O)N(c1ccc(O)cc1)C(C)C [N-isopropylacetaminophen, N-isopropyl-4'-hydroxyacetanilide]
average time before licking a back paw [6]: 64 s
increase in response time ([6]; vs untreated control, 54° C.): 50%
duration of sedative effect ([9]; 250 mg/kg): 30 min
duration of sedative effect ([9]; 400 mg/kg): approximately 1.5 hr
CNS sedation ([9]; 250-400 mg/kg i.p.): significant CNS sedation
additional CNS effects after recovery from sedation ([9]; after recovery): no additional CNS effects were observed
sleep ([9]; higher dose): went to sleep
dose giving significant CNS sedation in all mice ([9]; i.p.): 250 to 400 mg/kg
dose needed to give the same sedative activity ([9]; oral): 400 to 600 mg/kg
histopathology of liver, kidney and lung [10]: no organ showed any signs of injury

CC(=O)Nc1ccc(O)cc1 [acetaminophen]
immediate symptomatic effects (mouse, in vivo): No immediate symptomatic effects
hepatotoxicity on chronic ingestion [11]: massive hepatic necrosis
oral LD50 ([12]; po): about 400 mg/kg
hepatotoxicity at the oral LD50 dose [12]: severe hepatotoxicity
fraction of the liver necrotic (estimated) [13]: ~60%
liver histopathology [13]: severe hepatic necrosis

O=C1O[C@H]([C@@H](O)CO)C(O)=C1O [ascorbic acid]
protective effect against paracetamol ([1]; nonsustained release form): no protective effect
protective effect against paracetamol ([1]; sustained release form): substantial protective effect
protection against acetaminophen hepatotoxicity ([1]; animal studies): may also provide such protection
apparent half-life of acetaminophen [14]: did not affect the apparent half-life
excretion rate of acetaminophen sulfate [14]: rapid and pronounced decrease

NCCS [cysteamine]
protection against acetaminophen hepatotoxicity ([1]; man and experimental animals): varying degrees of protection

N[C@@H](CS)C(=O)O [cysteine]
protection against acetaminophen hepatotoxicity ([1]; man and experimental animals): varying degrees of protection

CCO [ethanol]
induction of cytochrome P-450 (cytochrome P-450): demonstrated to induce cytochrome P-450
effect on acetaminophen-mediated hepatotoxicity [15]: markedly increased

N[C@@H](CCC(=O)N[C@@H](CS)C(=O)NCC(=O)O)C(=O)O [glutathione]
protection against acetaminophen toxicity [1]: afford protection against acetaminophen toxicity

CSCC[C@H](N)C(=O)O [methionine]
protection against acetaminophen hepatotoxicity ([1]; man and experimental animals): varying degrees of protection

CCC1(c2ccccc2)C(=O)NC(=O)NC1=O [phenobarbital]
induction of cytochrome P-450 (cytochrome P-450): well-known cytochrome P-450 inducer

CC(CN1c2ccccc2Sc2ccccc21)N(C)C (centres unmarked) [promethazine]
protection against acetaminophen toxicity [1]: afford protection against acetaminophen toxicity

CCCOC(=O)c1cc(O)c(O)c(O)c1 [propyl gallate]
effect on acetaminophen hepatotoxicity [1]: reduce heptatotoxicity

Cc1c(C)c2c(c(C)c1O)CCC(C)(CCCC(C)CCCC(C)CCCC(C)C)O2 (stereo not drawn) [vitamin E, α-tocopherol]
effect on acetaminophen hepatotoxicity [1]: reduce heptatotoxicity
protection against acetaminophen hepatotoxicity ([1]; man and experimental animals): varying degrees of protection
protection against acetaminophen hepatotoxicity [16]: protects vitamin E deficient rats

CN(C)CCO [β-dimethylaminoethanol]
protection against acetaminophen toxicity [1]: afford protection against acetaminophen toxicity

selenium
protection against acetaminophen hepatotoxicity ([1]; man and experimental animals): varying degrees of protection
